Earlier results, collected in patent publication US7407975B2, “Epothilone derivatives, method for producing same and their pharmaceutical use” (priority 1997, dated 2008).

Tested on: P-glycoprotein-forming multiresistant tumor lines
Settings: in comparison to taxol

C/C(=C\c1csc(C)n1)[C@@H]1C[C@@H]2O[C@@H]2CCC[C@H](C)[C@H](O)[C@@H](C)C(=O)C(C)(C)[C@@H](O)CC(=O)O1 [Epothilone A, epothilone A]
activity against P-glycoprotein-forming multiresistant tumor lines: significantly higher activity

C/C(=C\c1csc(C)n1)[C@@H]1C[C@@H]2O[C@]2(C)CCC[C@H](C)[C@H](O)[C@@H](C)C(=O)C(C)(C)[C@@H](O)CC(=O)O1 [Epothilone B, epothilone B]
activity against P-glycoprotein-forming multiresistant tumor lines: significantly higher activity
